# Data reported in US8372799B2, “Reverse protein” (Apeptico Forschung und Entwicklung GmbH, priority 2007, dated 2013).
# Where a SMILES comes first, the peptide text is derived from it. Bridges are numbered along the chain shown (N, C = ends).
# Target: T1, epithelial sodium channels (Homo sapiens, UniProt P37088+P51168+P51170)
# T1 construct: endogenous in cells; host or cells: A549 human lung epithelial cells (ATCC CCL-185)
# T1 sequence (P37088 1-669): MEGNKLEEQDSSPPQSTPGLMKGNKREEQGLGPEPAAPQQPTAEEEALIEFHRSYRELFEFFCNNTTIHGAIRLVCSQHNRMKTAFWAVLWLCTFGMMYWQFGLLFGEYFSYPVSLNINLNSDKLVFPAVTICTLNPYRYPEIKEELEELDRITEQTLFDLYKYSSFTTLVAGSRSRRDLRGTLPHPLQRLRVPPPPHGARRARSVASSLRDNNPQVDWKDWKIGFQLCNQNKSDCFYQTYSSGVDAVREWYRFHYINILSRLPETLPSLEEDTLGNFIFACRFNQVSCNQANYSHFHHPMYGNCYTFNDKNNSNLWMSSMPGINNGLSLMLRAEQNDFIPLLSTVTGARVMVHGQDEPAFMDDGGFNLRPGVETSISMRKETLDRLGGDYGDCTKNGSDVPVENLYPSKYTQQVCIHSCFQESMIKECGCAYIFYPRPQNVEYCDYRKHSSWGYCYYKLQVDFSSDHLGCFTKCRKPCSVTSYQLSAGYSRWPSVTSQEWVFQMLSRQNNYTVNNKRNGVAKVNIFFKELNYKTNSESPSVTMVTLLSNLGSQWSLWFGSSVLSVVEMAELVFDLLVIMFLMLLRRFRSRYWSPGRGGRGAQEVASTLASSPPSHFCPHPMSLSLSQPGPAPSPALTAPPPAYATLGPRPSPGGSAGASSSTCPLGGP
# T1 sequence (P51168 1-640): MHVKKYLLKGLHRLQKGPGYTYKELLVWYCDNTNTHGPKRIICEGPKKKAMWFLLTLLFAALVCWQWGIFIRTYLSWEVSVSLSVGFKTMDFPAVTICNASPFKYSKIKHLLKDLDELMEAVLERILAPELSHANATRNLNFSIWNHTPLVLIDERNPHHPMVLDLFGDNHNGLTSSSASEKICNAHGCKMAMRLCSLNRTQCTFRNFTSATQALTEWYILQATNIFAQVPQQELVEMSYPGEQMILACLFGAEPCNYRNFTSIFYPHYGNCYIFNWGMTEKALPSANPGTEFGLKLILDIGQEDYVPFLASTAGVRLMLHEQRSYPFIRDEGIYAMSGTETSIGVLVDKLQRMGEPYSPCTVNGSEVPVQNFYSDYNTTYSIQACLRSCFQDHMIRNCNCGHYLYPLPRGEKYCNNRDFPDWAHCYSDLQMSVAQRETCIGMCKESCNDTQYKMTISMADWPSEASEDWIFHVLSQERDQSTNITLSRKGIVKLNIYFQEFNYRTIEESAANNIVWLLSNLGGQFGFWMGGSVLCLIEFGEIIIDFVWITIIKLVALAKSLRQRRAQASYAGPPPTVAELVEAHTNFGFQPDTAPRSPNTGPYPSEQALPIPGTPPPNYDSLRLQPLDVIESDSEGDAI
# T1 sequence (P51170 1-649): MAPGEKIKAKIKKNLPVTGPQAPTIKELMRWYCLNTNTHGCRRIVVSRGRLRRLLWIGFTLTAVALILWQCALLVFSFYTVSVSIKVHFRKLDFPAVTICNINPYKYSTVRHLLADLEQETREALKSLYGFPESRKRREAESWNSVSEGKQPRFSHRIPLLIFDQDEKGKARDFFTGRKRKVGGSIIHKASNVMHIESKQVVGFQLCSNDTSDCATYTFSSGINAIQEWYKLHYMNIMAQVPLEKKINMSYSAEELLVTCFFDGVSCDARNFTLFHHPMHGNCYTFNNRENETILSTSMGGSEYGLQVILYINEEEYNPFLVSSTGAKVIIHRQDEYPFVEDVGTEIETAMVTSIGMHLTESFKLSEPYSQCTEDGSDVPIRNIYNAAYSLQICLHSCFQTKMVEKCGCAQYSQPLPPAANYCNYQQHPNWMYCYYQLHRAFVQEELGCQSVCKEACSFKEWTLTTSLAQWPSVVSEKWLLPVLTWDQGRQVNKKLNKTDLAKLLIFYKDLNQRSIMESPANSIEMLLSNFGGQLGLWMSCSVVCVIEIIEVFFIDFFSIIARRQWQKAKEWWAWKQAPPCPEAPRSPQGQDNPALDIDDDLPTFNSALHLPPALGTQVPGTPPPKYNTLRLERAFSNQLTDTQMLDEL
# Assay: Patch-clamp activation of sodium ion channels in A549 cells
# Format: cell-based
# Details: whole cell / cell-attached, amiloride-sensitive sodium current
# Source text: Furthermore, a method common in laboratories is to detect the activation of ion channels by means of patch-clamp experiments, and this is described, for example, in Clunes M. T. et al, J Physiol Volume 557, No. 3, 809-819 (Jun. 15, 2004). For patch-clamp examinations of ion channels, a glass cannula is stretched thin and filled with a neutral buffer solution. The glass cannula (patch-clamp pipette) is carefully pressed onto an intact epithelial cell. A piece of membrane is located below the pipette. An electrical resistance is thereby produced between the interior of the pipette and the external solution. An electrode attached to a sensitive amplifier dips into the pipette solution.
# The electrophysiological experiments were performed on human A549 cells (ATTC No. CCL-185). A549 cells are human lung epithelial cells which are involved in the diffusion of water and electrolytes in the lungs.
# The cells were suspended in DMEM-F-12 medium with 1% penicillin-streptomycin and 10% fetal calf serum, transferred into plastic cell culture vessels and cultivated in the incubator with 95% air and 5% CO2 at 37° C. The medium was changed 2 to 3 times per week. The cells double within approx. 22 hours and a cell concentration of more than 7×10^4 cells per cm^2 was not exceeded.
# Macroscopic currents and single-channel currents were discharged from A549 cells in the “whole cell” and “cell-attached” configuration of the “patch-clamp” technique (Hamill et al, Pflugers Arch. 1981, 391(2):85-100, 1981). For the current dissipations in the “whole cell” configuration, the following bath and electrode solutions were used:
# Bath solution: 135 mM sodium methane sulfonate, 10 mM NaCl, 2.7 mM KCl, 1.8 mM CaCl2, 2 mM MgCl2, 5.5 mM glucose, and 10 mM HEPES, pH 7.4. […]
# The cover slips with the cells cultivated thereon were transferred into a test bath with a capacity of 1 ml, fixed on the microscope table (Axiovert 100, 400-fold magnification), and the cells were superfused with the above-described bath solution. […] In the “cell-attached” configuration, the current can be measured through individual ion channels beneath the electrode tip. In the “whole cell” configuration, the membrane was penetrated beneath the electrode tip so that the current flowing through all ion channels of the cell could be measured. […] Upon obtaining a Gigaohm seal, a defined membrane retaining potential was applied via a pre-amplifier (CV-4 Headstage, Axon Instruments) and an amplifier (Axopatch 1D, Axon Instr.) and the current thereby flowing through the ion channels was measured.
# The pulse protocol consisted of a hyperpolarization to −100 mV for 1 s at an interval of 5 s. […] The current dissipations thus obtained were stored and analyzed by means of the program PCLAMP 6.0. […]
row,Compound,activation of the sodium ion channels (patch clamp)
1,CC[C@H](C)[C@H](NC(=O)[C@H](C)N)C(=O)N[C@@H](CCCCN)C(=O)N[C@@H](CO)C(=O)N1CCC[C@H]1C(=O)N[C@H]1CSSC[C@@H](C(=O)N2CCC[C@H]2C(=O)N[C@@H](CO)C(=O)N[C@H](C(=O)N[C@@H](Cc2c[nH]cn2)C(=O)N[C@H](C(=O)O)C(C)C)[C@@H](C)O)NC(=O)CNC(=O)CNC(=O)[C@H](CCCCN)NC(=O)[C@H](C)NC(=O)[C@H](CCC(=O)O)NC(=O)[C@H](C)NC(=O)CNC(=O)[C@H](CCC(=O)O)NC(=O)[C@@H]2CCCN2C(=O)[C@H]([C@@H](C)O)NC(=O)[C@H](CCC(=O)O)NC(=O)[C@H](CCCNC(=N)N)NC(=O)[C@H](CCC(N)=O)NC1=O [SEQ ID NO:1] (H-AIKSPCQRETPEGAEAKGGCPSTHV-OH; disulfide 6-20),activation of the sodium ion channels
2,C[C@@H]1NC(=O)CNC(=O)[C@H](CCC(=O)O)NC(=O)[C@@H]2CCCN2C(=O)[C@H]([C@@H](C)O)NC(=O)[C@H](CCC(=O)O)NC(=O)[C@H](CCCNC(=N)N)NC(=O)[C@H](CCC(N)=O)NC(=O)[C@@H](NC(=O)[C@@H]2CCCN2C(=O)[C@H](CO)NC(=O)[C@@H](N)CCCCN)CSSC[C@@H](C(=O)N2CCC[C@H]2C(=O)N[C@@H](CO)C(=O)O)NC(=O)CNC(=O)CNC(=O)[C@H](CCCCN)NC(=O)[C@H](C)NC(=O)[C@H](CCC(=O)O)NC1=O [SEQ ID NO:2] (H-KSPCQRETPEGAEAKGGCPS-OH; disulfide 4-18),activation of the sodium ion channels
3,"C[C@@H]1NC(=O)CNC(=O)[C@H](CCC(=O)O)NC(=O)[C@@H]2CCCN2C(=O)[C@H]([C@@H](C)O)NC(=O)[C@H](CCC(=O)O)NC(=O)[C@H](CCCNC(=N)N)NC(=O)[C@H](CCC(N)=O)NC(=O)[C@@H](N)CSSC[C@@H](C(=O)O)NC(=O)CNC(=O)CNC(=O)[C@H](CCCCN)NC(=O)[C@H](C)NC(=O)[C@H](CCC(=O)O)NC1=O [SEQ ID NO:3, (NH2)Cys-Gln-Arg-Glu-Thr-Pro-Glu-Gly-Ala-Glu-Ala-Lys-Gly-Gly-Cys(COOH)] (H-CQRETPEGAEAKGGC-OH; disulfide 1-15)",activation of the sodium ion channels
